#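 Grown in 96-well plates, cells were treated for 48 hours with each compound at five concentrations. Insufficient inhibition: endpoint recorded as highest concentration tested. TGI is the concentration that stops growth completely.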
# Key:
# Test in all cases: NCI tumour cell line growth inhibition, 48 h
# [1] = system: A498 renal
# [2] = system: A549 NSCLC
# [3] = system: CCRF-CEM leukemia
# [4] = system: COLO 205 colon
# [5] = system: DLD-1 colon
# [6] = system: DMS 114 small cell lung
# [7] = system: DMS 273 small cell lung
# [8] = system: EKVX NSCLC
# [9] = system: HCC-2998 colon
# [10] = system: HCT-116 colon
# [11] = system: HCT-15 colon
# [12] = system: HL-60(TB) leukemia
# [13] = system: HOP-18 NSCLC
# [14] = system: HOP-62 NSCLC
# [15] = system: HOP-92 NSCLC
# [16] = system: HT29 colon
# [17] = system: IGROV1 ovarian
# [18] = system: K-562 leukemia
# [19] = system: KM12 colon
# [20] = system: KM20L2 colon
# [21] = system: LOX IMVI melanoma
# [22] = system: M19-MEL melanoma
# [23] = system: MALME-3M melanoma
# [24] = system: MCF7 breast
# [25] = system: MOLT-4 leukemia
# [26] = system: NCI-H226 lung
# [27] = system: NCI-H23 lung
# [28] = system: NCI-H460 lung
# [29] = system: NCI-H522 lung
# [30] = system: NCI/ADR-RES ovarian
# [31] = system: OVCAR-3 ovarian
# [32] = system: OVCAR-4 ovarian
# [33] = system: OVCAR-5 ovarian
# [34] = system: OVCAR-8 ovarian
# [35] = system: P388 leukemia
# [36] = system: RPMI-8226 leukemia
# [37] = system: RXF 393 renal
# [38] = system: SF-268 CNS
# [39] = system: SF-295 CNS
# [40] = system: SF-539 CNS
# [41] = system: SK-MEL-2 melanoma
# [42] = system: SK-MEL-28 melanoma
# [43] = system: SK-MEL-5 melanoma
# [44] = system: SK-OV-3 ovarian
# [45] = system: SN12C renal
# [46] = system: SN12K1 renal
# [47] = system: SNB-19 CNS
# [48] = system: SNB-75 CNS
# [49] = system: SNB-78 CNS
# [50] = system: SW-620 colon
# [51] = system: U251 CNS
# [52] = system: UACC-257 melanoma
# [53] = system: UO-31 renal
# [54] = system: XF 498 CNS
# [55] = system: 786-0 renal
# [56] = system: ACHN renal
# [57] = system: CAKI-1 renal
# [58] = system: LXFL 529 NSCLC
# [59] = system: M14 melanoma
# [60] = system: RXF-631 renal
# [61] = system: SR leukemia
# [62] = system: TK-10 renal
# [63] = system: UACC-62 melanoma
compound,measurement,setting,value
COc1cc(-c2ccc(N=Nc3c(S(=O)(=O)O)cc4cc(S(=O)(=O)O)cc(N)c4c3O)c(OC)c2)ccc1N=Nc1c(S(=O)(=O)O)cc2cc(S(=O)(=O)O)cc(N)c2c1O,TGI,[1],> 100 µM
same,TGI,[2],> 100 µM
same,TGI,[3],> 100 µM
same,TGI,[4],> 100 µM
same,TGI,[5],> 100 µM
same,TGI,[6],> 100 µM
same,TGI,[7],> 100 µM
same,TGI,[8],> 100 µM
same,TGI,[9],> 100 µM
same,TGI,[10],> 100 µM
same,TGI,[11],> 100 µM
same,TGI,[12],> 100 µM
same,TGI,[13],> 100 µM
same,TGI,[14],> 100 µM
same,TGI,[15],> 77.4 µM
same,TGI,[16],> 100 µM
same,TGI,[17],> 100 µM
same,TGI,[18],> 100 µM
same,TGI,[19],> 100 µM
same,TGI,[20],> 100 µM
same,TGI,[21],> 100 µM
same,TGI,[22],> 100 µM
same,TGI,[23],> 100 µM
same,TGI,[24],> 100 µM
same,TGI,[25],> 100 µM
same,TGI,[26],> 100 µM
same,TGI,[27],> 100 µM
same,TGI,[28],> 100 µM
same,TGI,[29],> 100 µM
same,TGI,[30],> 100 µM
same,TGI,[31],> 100 µM
same,TGI,[32],> 100 µM
same,TGI,[33],> 100 µM
same,TGI,[34],> 100 µM
same,TGI,[35],> 100 µM
same,TGI,[36],> 100 µM
same,TGI,[37],> 100 µM
same,TGI,[38],> 100 µM
same,TGI,[39],> 100 µM
same,TGI,[40],> 100 µM
same,TGI,[41],> 100 µM
same,TGI,[42],> 100 µM
same,TGI,[43],> 100 µM
same,TGI,[44],> 100 µM
same,TGI,[45],> 100 µM
same,TGI,[46],> 100 µM
same,TGI,[47],> 100 µM
same,TGI,[48],> 100 µM
same,TGI,[49],> 100 µM
same,TGI,[50],> 100 µM
same,TGI,[51],> 100 µM
same,TGI,[52],> 100 µM
same,TGI,[53],> 100 µM
same,TGI,[54],> 67.9 µM
COc1ccc(NCc2cc(OC)cc(OC)c2)cc1,TGI,[55],> 100 µM
same,TGI,[1],> 100 µM
same,TGI,[2],> 100 µM
same,TGI,[56],> 100 µM
same,TGI,[57],> 100 µM
same,TGI,[3],> 92.6 µM
same,TGI,[4],27.4 µM
same,TGI,[5],> 100 µM
same,TGI,[6],> 100 µM
same,TGI,[7],> 70.4 µM
same,TGI,[8],> 100 µM
same,TGI,[9],57.9 µM
same,TGI,[10],57.3 µM
same,TGI,[11],> 100 µM
same,TGI,[12],32.9 µM
same,TGI,[13],> 100 µM
same,TGI,[14],> 100 µM
same,TGI,[15],> 100 µM
same,TGI,[16],> 100 µM
same,TGI,[17],> 100 µM
same,TGI,[18],> 84.6 µM
same,TGI,[19],> 64.9 µM
same,TGI,[20],38.1 µM
same,TGI,[21],> 100 µM
same,TGI,[58],> 100 µM
same,TGI,[59],> 100 µM
same,TGI,[22],> 100 µM
same,TGI,[23],> 100 µM
same,TGI,[25],> 100 µM
same,TGI,[26],> 100 µM
same,TGI,[27],> 95.5 µM
same,TGI,[28],> 84.6 µM
same,TGI,[29],56.7 µM
same,TGI,[31],> 59.3 µM
same,TGI,[32],82.1 µM
same,TGI,[33],77.7 µM
same,TGI,[34],> 100 µM
same,TGI,[36],61.6 µM
same,TGI,[37],69.8 µM
same,TGI,[60],> 100 µM
same,TGI,[38],> 91 µM
same,TGI,[39],> 100 µM
same,TGI,[40],54.2 µM
same,TGI,[41],> 82.7 µM
same,TGI,[42],> 100 µM
same,TGI,[43],> 100 µM
same,TGI,[44],> 95.5 µM
same,TGI,[45],> 100 µM
same,TGI,[47],> 100 µM
same,TGI,[48],> 100 µM
same,TGI,[49],61.8 µM
same,TGI,[61],> 100 µM
same,TGI,[50],> 100 µM
same,TGI,[62],> 100 µM
same,TGI,[51],> 85 µM
same,TGI,[52],> 100 µM
same,TGI,[63],> 100 µM
same,TGI,[53],> 91.8 µM
same,TGI,[54],> 76.8 µM

# From PubChem BioAssay (NCI)
